Experimental data as given in US20110177970A1, “METHODS FOR PREDICTING OR MONITORING WHETHER A PATIENT AFFECTED BY A CANCER IS RESPONSIVE TO A TREATMENT WITH A MOLECULE OF THE TAXOID FAMILY” (Inserm (Institut National de la Sante et de la Recherche …, priority 2008, published 2011).

What was measured:
parental IGR-CaP1 cells = assay: WST1 cell proliferation assay, cytotoxic effect of docetaxel, parental cells; format: cell-based, human; settings: docetaxel 1.25 nM to 50 nM, 72 h
Excerpt: (§1) The data represent the mean of three different experiments, the error bars represent the SEM.
(§2) Several clonally-derived cells were obtained from the parental IGR-CaP1 cells by limit dilutions.

[1] = tested on: 3B1 clone (clonally-derived IGR-CaP1 cells); assay: WST1 cell proliferation assay, cytotoxic effect of docetaxel, clone 3B1; format: cell-based, human
Excerpt: as §1, §2

[2] = tested on: breast cancer metastatic tumours; settings: cited from earlier work
[3] = tested on: patients treated with docetaxel; settings: from the beginning or in a secondary way; cited from earlier work
[4] = tested on: 3A11 clone (clonally-derived IGR-CaP1 cells); assay: WST1 cell proliferation assay, cytotoxic effect of docetaxel, clone 3A11; format: cell-based, human
Excerpt: as §1, §2

[5] = tested on: docetaxel resistant cells; settings: cited from earlier work

Structure (SMILES)	cell proliferation (WST1) (parental IGR-CaP1 cells)	effect on proliferation compared to parental IGR-CaP1 cells ([1]; 3B1 clone vs parental, p<0.001)	cell proliferation (WST1) ([1]; 3B1 clone, docetaxel 1.25 nM to 50 nM, 72 h)	metastatic tumours that respond [2]	patients who develop a resistance to the chemotherapy [3]	effect on proliferation compared to parental IGR-CaP1 cells ([4]; 3A11 clone vs parental, p<0.001)	cell proliferation (WST1) ([4]; 3A11 clone, docetaxel 1.25 nM to 50 nM, 72 h)	apoptosis [5]	expression of clusterin [5]
CC(=O)O[C@@]12CO[C@@H]1C[C@H](O)[C@@]1(C)C(=O)[C@H](O)C3=C(C)[C@@H](OC(=O)[C@H](O)[C@@H](NC(=O)OC(C)(C)C)c4ccccc4)C[C@@](O)([C@@H](OC(=O)c4ccccc4)[C@H]21)C3(C)C [docetaxel]	decreased cell proliferation in a dose-dependent manner	significantly lower extent	decreased cell proliferation in a dose-dependent manner	30 to 50%	almost half of the patients	significantly lower extent	decreased cell proliferation in a dose-dependent manner		
Oc1ccc(C=Cc2cc(O)cc(O)c2)cc1 [resveratrol]								increase of apoptosis	decreased expression of clusterin
